The values that follow come from patent publication US7348161B2, “Macrolide efflux genetic assembly” (Emory University, priority 2001, dated 2008).

In brackets after ≈: the same amount, converted by molar mass. Numbered stars: 1 amine (or outer) side, 2 acyl side, 3 side chain; on linkers, the order of the positions; unused ones are H or OH. Bridge positions count the residues as written; N and C are the ends. Square brackets hold non-standard residues; d marks the D form. Peptide text beside a SMILES is read from it. * marks the point of attachment. X1 = O=C1C[C@@H](C(=O)[*:2])N([*:1])C[C@H]1CS[C@@H]1CN2CCC1CC2; NMePhe(4-NMe2) = CN[C@@H](Cc1ccc(N(C)C)cc1)C(=O)O; Picolinoyl(3-OH) = O=C(c1ncccc1O)*; Phg = N[C@H](C(=O)O)c1ccccc1; dAbu = CC[C@@H](N)C(=O)O

The test system of assay [1] is MefE. The settings on record: proton motive function of MefE; refs [9,10]; cited from earlier work.
Assay [2] has as its system S. pneumoniae isolates. Put plainly: Antimicrobial susceptibility (NCCLS guidelines) of invasive S. pneumoniae isolates. It counts as cell-based. The settings on record: Streptococcus pneumoniae.
The subject of assay [3] is pneumococci containing ermAM. As to conditions: typical value; cited from earlier work.
The test system of assay [4] is invasive pneumococcal isolates. The assay can be described thus: Preliminary screening of 1998 invasive pneumococcal isolates for quinupristin resistance. Format: cell-based, S. pneumoniae.

As for `N#CC(C#N)=NNc1cccc(Cl)c1` [carbonylcyanide-m-chlorophenylhydrazone], the “Effect on efflux of [14C]-erythromycin” value in assay [1] was “decrease in the efflux”.

Take `CC[C@H]1OC(=O)[C@H](C)[C@@H](O[C@H]2C[C@@](C)(OC)[C@@H](O)[C@H](C)O2)[C@H](C)[C@@H](O[C@@H]2O[C@H](C)C[C@H](N(C)C)[C@H]2O)[C@](C)(O)C[C@@H](C)C(=O)[C@H](C)[C@@H](O)[C@]1(C)O` [erythromycin]: the MIC (in general, the least concentration at which growth counts as inhibited) in assay [2] (eighty-nine mefE-containing isolates, January 1994 to February 1996) was at least 4 µg/mL; in assay [2] (subset of 336 erythromycin-resistant isolates, 1994-1996 and 1998) it was 4 µg/mL (≈ 5.45 µM). Also, the “Erythromycin MIC” value in assay [3] was 64 µg/mL.

In the case of `CC[C@H]1NC(=O)[C@@H](NC(=O)c2ncccc2O)[C@@H](C)OC(=O)[C@H](c2ccccc2)NC(=O)[C@@H]2CC(=O)[C@H](CS[C@@H]3CN4CCC3CC4)CN2C(=O)[C@H](Cc2ccc(N(C)C)cc2)N(C)C(=O)[C@@H]2CCCN2C1=O` [quinupristin] ({Picolinoyl(3-OH)}-T[dAbu]P[NMePhe(4-NMe2)][X1][Phg]; ester 1-C), in assay [4], the “Share of isolates resistant” value is “approximately half were resistant”.

Regarding arsenate, in assay [1], the “Effect on efflux of [14C]-erythromycin” value was “decrease in the efflux”.
